The values below come from US8993574B2, “Pyrrole antifungal agents” (F2G Ltd, priority 2008, dated 2015).

Holding throughout (type): cell-based
Assay [1] relates to Aspergillus fumigatus AF293. Description: MIC, YAG medium. The following applies: 24 h at 35° C, MIC banded into grades; for MIC: Aspergillus fumigatus, read-out: MIC grade, A. fumigatus. A digest of the protocol: (§1)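 Broth microdilution in YAG medium tests compound over 50-0.05 mg/L against spores at 1−2×10^4 cfu/mL. After 24 h incubation at 35° C, optical density at 485 nm gives growth, and the MIC is the lowest concentration reducing it by more than 70% relative to untreated control.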

Assay [2] relates to Aspergillus flavus. The assay is described as follows: MIC, YAG medium. The following applies: 24 h at 35° C, MIC banded into grades; for MIC: Aspergillus flavus, 24 h, read-out: MIC grade, A. flavus. In short, it runs like this: as §1
Assay [3] deals with Aspergillus terreus AT4. The assay is described as follows: MIC, YAG medium. The following applies: 24 h at 35° C, MIC banded into grades; for MIC: Aspergillus terreus, read-out: MIC grade, A. terreus. A digest of the protocol: as §1
Assay [4] deals with Aspergillus fumigatus AF210. The assay is described as follows: MIC, YAG medium. Particulars: 24 h at 35° C, MIC banded into grades; for MIC: Aspergillus fumigatus, read-out: MIC grade, A. fumigatus 210. A digest of the protocol:
as §1

For assay [5], the system named is Aspergillus terreus AT49. Description: MIC, YAG medium. Particulars: 24 h at 35° C, MIC banded into grades; for MIC: Aspergillus terreus, read-out: MIC grade, A. terreus 49. A digest of the protocol: as §1
Assay [6] deals with Aspergillus niger. Description: MIC, YAG medium. Particulars: 24 h at 35° C, MIC banded into grades; for MIC: Aspergillus niger, read-out: MIC grade, A. niger. A digest of the protocol: as §1
The subject of assay [7] is Aspergillus fumigatus AF293. Description: MIC, RPMI medium. The following applies: for MIC: Aspergillus fumigatus, AF293, MIC banded into grades, read-out: MIC grade, A. fumigatus. In short, it runs like this:
(§2)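 OD485-based endpoint after 24-48 h/35° C; MIC = lowest concentration, >80% inhibition relative to drug-free. RPMI/2% glucose/0.135 M MOPS pH 7.0; 1−2×10^4 cfu/mL; range 50-0.05 mg/L.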

Assay [8] has as its system Aspergillus flavus. Description: MIC, RPMI medium. The following applies: MIC banded into grades; for MIC: Aspergillus flavus, read-out: MIC grade, A. flavus. In short, it runs like this: as §2
Assay [9] has as its system Aspergillus terreus AT4. Description: MIC, RPMI medium. Particulars: for MIC: Aspergillus terreus, AT4, MIC banded into grades, read-out: MIC grade, A. terreus. A digest of the protocol: as §2
For assay [10], the system named is Aspergillus fumigatus AF210. Description: MIC, RPMI medium. Particulars: for MIC: Aspergillus fumigatus, AF210, MIC banded into grades, read-out: MIC grade, A. fumigatus 210. A digest of the protocol:
as §2

Assay [11] concerns Aspergillus terreus AT49. The assay is described as follows: MIC, RPMI medium. Particulars: for MIC: Aspergillus terreus, AT49, MIC banded into grades, read-out: MIC grade, A. terreus 49. In short, it runs like this: as §2
Assay [12] has as its system Aspergillus niger. Description: MIC, RPMI medium. The following applies: MIC banded into grades; for MIC: Aspergillus niger, read-out: MIC grade, A. niger. A digest of the protocol:
as §2

≈ marks a conversion by molar mass, not a printed value. Some results are limits rather than exact numbers.

With `Cc1cc(C)nc(N2CCN(c3ccc(NC(=O)C(=O)c4c(-c5ccccc5)cc(C)n4C)c(Cl)c3)CC2)c1` [Example 21, N-{2-Chloro-4-[4-(4,6-dimethyl-pyridin-2-yl)-piperazin-1-yl]-phenyl}-2-(1,5-dimethyl-3-phenyl-1H-pyrrol-2-yl)-2-oxo-acetamide], the MIC (in [1]; in the assay on Aspergillus flavus [2]; in the assay with Aspergillus terreus AT4 [3]; in assay [4]; in the assay on Aspergillus terreus AT49 [5]; in the assay on Aspergillus niger [6]) was less than 1 µg/mL each time. Moreover, the MIC (in [7]; with Aspergillus flavus [8]; with Aspergillus terreus AT4 [9]; in [10]; in the assay with Aspergillus terreus AT49 [11]; in the assay with Aspergillus niger [12]) was less than 1 µg/mL each time.

On to `COC(=O)Cn1ccc(C2CCC2)c1C(=O)C(=O)Nc1ccc(N2CCN(c3cc(C)cc(C)n3)CC2)cc1` [Example 107, (3-Cyclobutyl-2-{4-[4-(4,6-dimethyl-pyridin-2-yl)-piperazin-1-yl]-phenylaminooxalyl}-pyrrol-1-yl)-acetic acid methyl ester], for which the “MIC grade, A. fumigatus” value in assay [1] and in [7] (MIC banded into grades) was 3 (A grade of 3 represents an MIC of less than 1 mg/L) throughout. The “MIC grade, A. flavus” value with Aspergillus flavus [2] and against Aspergillus flavus [8] was 1 (a grade of 1 represents an MIC of greater than 10 mg/L) throughout. In addition, the “MIC grade, A. terreus” value in the assay on Aspergillus terreus AT4 [3] and against Aspergillus terreus AT4 [9] (MIC banded into grades) was 1 (a grade of 1 represents an MIC of greater than 10 mg/L) each time. Further, the figures for the “MIC grade, A. fumigatus 210” value in assay [4] and in assay [10] (MIC banded into grades) were 3 (A grade of 3 represents an MIC of less than 1 mg/L) and 2 (A grade of 2 represents an MIC of from 1 to 10 mg/L), respectively. The “MIC grade, A. terreus 49” value in the assay on Aspergillus terreus AT49 [5] and against Aspergillus terreus AT49 [11] (MIC banded into grades) was 1 (a grade of 1 represents an MIC of greater than 10 mg/L) each time. Moreover, the “MIC grade, A. niger” value with Aspergillus niger [6] and with Aspergillus niger [12] was 1 (a grade of 1 represents an MIC of greater than 10 mg/L) each time.

Consider `Cc1cc(C)nc(N2CCN(c3ccc(NC(=O)C(=O)c4[nH]c(C)cc4-c4ccccc4)cc3)CC2)c1` [Example 50, N-{4-[4-(4,6-Dimethyl-pyridin-2-yl)-piperazin-1-yl]-phenyl}-2-(5-methyl-3-phenyl-1H-pyrrol-2-yl)-2-oxo-acetamide], for which the MIC (in [1]; in the assay with Aspergillus flavus [2]; with Aspergillus terreus AT4 [3]; in [4]; with Aspergillus terreus AT49 [5]; with Aspergillus niger [6]) was less than 1 µg/mL in each case. The MIC (in assay [7]; with Aspergillus flavus [8]; in the assay on Aspergillus terreus AT4 [9]; in assay [10]; in the assay on Aspergillus terreus AT49 [11]; in the assay on Aspergillus niger [12]) was less than 1 µg/mL in each case.

Turning to `Cc1cc(C)nc(N2CCN(c3ccc(NC(=O)C(=O)c4c(-c5ccccc5)c(C)cn4C)cc3)CC2)c1` [Example 18, 2-(1,4-Dimethyl-3-phenyl-1H-pyrrol-2-yl)-N-{4-[4-(4,6-dimethyl-pyridin-2-yl)-piperazin-1-yl]-phenyl}-2-oxo-acetamide], the MIC – broadly, the lowest concentration found to suppress growth – was less than 1 µg/mL in assay [1]; less than 1 µg/mL with Aspergillus flavus [2]; less than 1 µg/mL in the assay on Aspergillus terreus AT4 [3]; less than 1 µg/mL in assay [4]; less than 1 µg/mL with Aspergillus terreus AT49 [5]; greater than 10 µg/mL with Aspergillus niger [6]. Further, the MIC in assay [7] is less than 1 µg/mL; in the assay on Aspergillus flavus [8], 1 to 10 µg/mL (≈ 1.97 to 19.7 µM); in the assay on Aspergillus terreus AT4 [9], less than 1 µg/mL; in assay [10] it was less than 1 µg/mL; with Aspergillus terreus AT49 [11], less than 1 µg/mL; in the assay on Aspergillus niger [12] it was greater than 10 µg/mL.

In the case of `Cc1cc(C)nc(N2CCN(c3ccc(NC(=O)C(=O)c4cccn4-c4ccccc4)cc3)CC2)c1` [Example 2, N-{4-[4-(4,6-Dimethyl-pyridin-2-yl)-piperazin-1-yl]-phenyl}-2-oxo-2-(1-phenyl-1H-pyrrol-2-yl)-acetamide], the MIC in assay [1] was 1 to 10 µg/mL (≈ 2.09 to 20.9 µM); in the assay with Aspergillus flavus [2] it was less than 1 µg/mL; in the assay with Aspergillus terreus AT4 [3] it was less than 1 µg/mL; in assay [4], 1 to 10 µg/mL (≈ 2.09 to 20.9 µM); with Aspergillus terreus AT49 [5] it was less than 1 µg/mL; in the assay with Aspergillus niger [6] it was greater than 10 µg/mL. For the same molecule, the MIC (in [7]; with Aspergillus flavus [8]; in the assay on Aspergillus terreus AT4 [9]; in assay [10]; with Aspergillus terreus AT49 [11]; in the assay on Aspergillus niger [12]) was greater than 10 µg/mL each time.

As to `Cc1cc(-c2ccccc2)c(C(=O)C(=O)Nc2ccc(N3CCOCC3)cc2)n1C` [Example 154, 2-(1,5-Dimethyl-3-phenyl-1H-pyrrol-2-yl)-N-(4-morpholin-4-yl-phenyl)-2-oxo-acetamide], the MIC (in assay [1]; in the assay on Aspergillus flavus [2]; with Aspergillus terreus AT4 [3]; in assay [4]; with Aspergillus terreus AT49 [5]; in the assay on Aspergillus niger [6]) was less than 1 µg/mL throughout. Moreover, the MIC (in [7]; in the assay on Aspergillus flavus [8]; in the assay on Aspergillus terreus AT4 [9]; in assay [10]; in the assay with Aspergillus terreus AT49 [11]; with Aspergillus niger [12]) was less than 1 µg/mL each time.

In the case of `CCc1cc(-c2ccccc2)c(C(=O)C(=O)Nc2ccc(N3CCN(c4cc(C)cc(C)n4)CC3)cc2)n1COC` [Example 125, N-{4-[4-(4,6-Dimethyl-pyridin-2-yl)-piperazin-1-yl]-phenyl}-2-(5-ethyl-1-methoxymethyl-3-phenyl-1H-pyrrol-2-yl)-2-oxo-acetamide], the MIC (in assay [1]; with Aspergillus flavus [2]; in the assay with Aspergillus terreus AT4 [3]; in assay [4]; in the assay with Aspergillus terreus AT49 [5]; in the assay with Aspergillus niger [6]) was less than 1 µg/mL in each case. Besides, the MIC (in assay [7]; with Aspergillus flavus [8]; in the assay on Aspergillus terreus AT4 [9]; in [10]; in the assay with Aspergillus terreus AT49 [11]; in the assay with Aspergillus niger [12]) was 1 to 10 µg/mL (≈ 1.81 to 18.1 µM) each time.

Take `Cc1cc(C)nc(N2CCN(c3ccc(NC(=O)C(=O)c4c(-c5ccccc5)cc5n4CCOC5)cc3)CC2)c1` [Example 7, N-{4-[4-(4,6-Dimethyl-pyridin-2-yl)-piperazin-1-yl]-phenyl}-2-oxo-2-(7-phenyl-3,4-dihydro-1H-pyrrolo[2,1-c][1,4]oxazin-6-yl)-acetamide]: the minimal inhibitory concentration (MIC) (in [1]; with Aspergillus flavus [2]; with Aspergillus terreus AT4 [3]; in [4]; in the assay with Aspergillus terreus AT49 [5]; in the assay with Aspergillus niger [6]) was less than 1 µg/mL in each case. Also, the MIC (in assay [7]; in the assay on Aspergillus flavus [8]; in the assay on Aspergillus terreus AT4 [9]; in assay [10]; in the assay with Aspergillus terreus AT49 [11]; in the assay on Aspergillus niger [12]) was less than 1 µg/mL in each case.

`COCCn1c(C)cc(C(C)C)c1C(=O)C(=O)Nc1ccc(N2CCN(c3cc(C)cc(C)n3)CC2)cc1` [Example 25, N-{4-[4-(4,6-Dimethyl-pyridin-2-yl)-piperazin-1-yl]-phenyl}-2-[3-isopropyl-1-(2-methoxy-ethyl)-5-methyl-1H-pyrrol-2-yl]-2-oxo-acetamide]: the MIC in assay [1] is less than 1 µg/mL; in the assay on Aspergillus flavus [2], 1 to 10 µg/mL (≈ 1.93 to 19.3 µM); in the assay on Aspergillus terreus AT4 [3], 1 to 10 µg/mL (≈ 1.93 to 19.3 µM); in assay [4] it was less than 1 µg/mL; in the assay with Aspergillus terreus AT49 [5], 1 to 10 µg/mL (≈ 1.93 to 19.3 µM); with Aspergillus niger [6] it was 1 to 10 µg/mL (≈ 1.93 to 19.3 µM). Moreover, the MIC is greater than 10 µg/mL in assay [7]; greater than 10 µg/mL in the assay on Aspergillus flavus [8]; greater than 10 µg/mL with Aspergillus terreus AT4 [9]; 1 to 10 µg/mL (≈ 1.93 to 19.3 µM) in assay [10]; greater than 10 µg/mL in the assay with Aspergillus terreus AT49 [11]; 1 to 10 µg/mL (≈ 1.93 to 19.3 µM) in the assay with Aspergillus niger [12].

Regarding `COCCn1ccc(C(C)C)c1C(=O)C(=O)Nc1ccc(N2CCN(c3cc(C)cc(C)n3)CC2)cc1` [Example 83, N-{4-[4-(4,6-Dimethyl-pyridin-2-yl)-piperazin-1-yl]-phenyl}-2-[3-isopropyl-1-(2-methoxy-ethyl)-1H-pyrrol-2-yl]-2-oxo-acetamide], the MIC in assay [1] was 1 to 10 µg/mL (≈ 1.99 to 19.9 µM); with Aspergillus flavus [2], greater than 10 µg/mL; with Aspergillus terreus AT4 [3] it was 1 to 10 µg/mL (≈ 1.99 to 19.9 µM); in [4] it was 1 to 10 µg/mL (≈ 1.99 to 19.9 µM); in the assay with Aspergillus terreus AT49 [5], 1 to 10 µg/mL (≈ 1.99 to 19.9 µM); in the assay on Aspergillus niger [6], greater than 10 µg/mL. Besides, the MIC (in assay [7]; with Aspergillus flavus [8]; with Aspergillus terreus AT4 [9]; in assay [10]; in the assay with Aspergillus terreus AT49 [11]; in the assay with Aspergillus niger [12]) was greater than 10 µg/mL in each case.
